The target of the test is T1, BRAF (Homo sapiens, UniProt P15056).
T1 construct: purchased Thermo Fisher Scientific (Life Technologies) SelectScreen
The test can be described thus: SelectScreen Z'LYTE. The conditions noted are these: ATP 100 µM. It is filed as biochemical. In a few lines: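 Percent values come from Thermo SelectScreen profiling of NU5455, combining activity and binding assays. CSF1R was run in Z'LYTE format at Km app ATP, and CAMK1 in Adapta format with ATP listed at 10.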

T1 sequence (P15056 whole entry): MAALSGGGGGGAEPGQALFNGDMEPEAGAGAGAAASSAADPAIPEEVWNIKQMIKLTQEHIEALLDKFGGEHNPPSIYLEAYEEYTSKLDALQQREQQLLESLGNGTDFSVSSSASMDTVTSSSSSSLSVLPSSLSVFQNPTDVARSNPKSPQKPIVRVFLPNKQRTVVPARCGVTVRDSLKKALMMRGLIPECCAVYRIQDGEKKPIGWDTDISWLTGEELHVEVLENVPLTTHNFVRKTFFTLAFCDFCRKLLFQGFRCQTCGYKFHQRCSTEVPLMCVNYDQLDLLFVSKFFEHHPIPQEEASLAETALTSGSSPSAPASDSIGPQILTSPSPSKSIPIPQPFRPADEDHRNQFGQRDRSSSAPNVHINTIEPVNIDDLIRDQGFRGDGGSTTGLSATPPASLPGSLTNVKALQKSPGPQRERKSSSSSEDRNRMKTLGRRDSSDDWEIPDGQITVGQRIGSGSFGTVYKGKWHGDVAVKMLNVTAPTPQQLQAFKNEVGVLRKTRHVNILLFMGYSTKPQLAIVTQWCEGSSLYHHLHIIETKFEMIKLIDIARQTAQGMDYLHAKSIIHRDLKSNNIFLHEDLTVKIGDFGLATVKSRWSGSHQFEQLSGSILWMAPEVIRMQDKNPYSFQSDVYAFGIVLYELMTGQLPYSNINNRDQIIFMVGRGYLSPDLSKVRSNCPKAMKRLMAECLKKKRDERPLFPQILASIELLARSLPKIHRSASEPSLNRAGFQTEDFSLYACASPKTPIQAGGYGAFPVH

For the molecule `CN(C(=O)CN1CCOCC1)c1ccc2sc3c(-c4cccc5c(=O)cc(N6CC7CCC(C6)O7)oc45)cccc3c2c1` [NU5455], the inhibition (commonly the share of the control response that was lost under treatment) at 1 µM was 9.9%.
